Common to all, as to assay type: functional
The subject of test [1] is Mus musculus. Briefly: Anti-inflammatory effect on inflammatory process II (migration: inflammatory cell count) at a log dose of -3g/kg, ip, in adjuvant-induced air-pouch granuloma of mice(*).
Test [2] relates to Mus musculus. Briefly: Anti-inflammatory effect on inflammatory process I (exudation: pouch fluid weight) at a log dose of -2.25g/kg, ip, in adjuvant-induced air-pouch granuloma of mice(*).
Test [3] concerns Mus musculus. Nature of the test: Inhibitory effect on inflammatory process II (migration: inflammatory cell count) at a log dose of -6mol/kg, ip relative to hydrocortisone on adjuvant-induced air-pouch granulomas of mice.
Test [4] concerns Mus musculus. Nature of the test: Anti-inflammatory effect on inflammatory process III (angiogenesis: carmine content) at a log dose of -1.5g/kg, ip, in adjuvant-induced air-pouch granuloma of mice(*).
Test [5] relates to Mus musculus. Nature of the test: Weak anti-inflammatory and inflammatory effect on inflammatory process I (exudation: pouch fluid weight) at a log dose of -1.5g/kg, ip, in adjuvant-induced air-pouch granuloma of mice(**).
Test [6] relates to Mus musculus. Nature of the test: Weak anti-inflammatory and inflammatory effect on inflammatory process III (angiogenesis: carmine content) at a log dose of -1.5g/kg, ip, in adjuvant-induced air-pouch granuloma of mice(**).
Test [7] concerns Mus musculus. Briefly: Anti-inflammatory effect on inflammatory process III (angiogenesis: carmine content) at a log dose of -3g/kg, ip, in adjuvant-induced air-pouch granuloma of mice(*).
Test [8] deals with Mus musculus. Nature of the test: Anti-inflammatory effect on inflammatory process II (migration: inflammatory cell count) at a log dose of -2.25g/kg, ip, in adjuvant-induced air-pouch granuloma of mice(*).
The subject of test [9] is Mus musculus. Briefly: Weak anti-inflammatory and inflammatory effect on inflammatory process IV (granuloma formation) at a log dose of -2.2g/kg, ip, in adjuvant-induced air-pouch granuloma of mice(**).
Test [10] deals with Mus musculus. Briefly: Anti-inflammatory effect on inflammatory process IV (granuloma formation) at a log dose of -2.25g/kg, ip, in adjuvant-induced air-pouch granuloma of mice(*).
Test [11] concerns Mus musculus. Briefly: Weak anti-inflammatory and inflammatory effect on inflammatory process III (angiogenesis: carmine content) at a log dose of -2.2g/kg, ip, in adjuvant-induced air-pouch granuloma of mice(**).
Test [12] relates to Mus musculus. Briefly: Anti-inflammatory effect on inflammatory process III (angiogenesis: carmine content) at a log dose of -2.25g/kg, ip, in adjuvant-induced air-pouch granuloma of mice(*).
Test [13] relates to Mus musculus. Nature of the test: Anti-inflammatory effect on inflammatory process IV (granuloma formation) at a log dose of -3g/kg, ip, in adjuvant-induced air-pouch granuloma of mice(*).
The test system of test [14] is Mus musculus. Briefly: Weak anti-inflammatory and inflammatory effect on inflammatory process II (migration: inflammatory cell count) at a log dose of -1.5g/kg, ip, in adjuvant-induced air-pouch granuloma of mice(**).
Test [15] deals with Mus musculus. Nature of the test: Weak anti-inflammatory and inflammatory effect on inflammatory process II (migration: inflammatory cell count) at a log dose of -2.2g/kg, ip, in adjuvant-induced air-pouch granuloma of mice(**).
In test [16] the test system is Mus musculus. Briefly: Weak anti-inflammatory and inflammatory effect on inflammatory process IV (granuloma formation) at a log dose of -3g/kg, ip, in adjuvant-induced air-pouch granuloma of mice(**).
Test [17] relates to Mus musculus. Briefly: Weak anti-inflammatory and inflammatory effect on inflammatory process I (exudation: pouch fluid weight) at a log dose of -3g/kg, ip, in adjuvant-induced air-pouch granuloma of mice(**).
Test [18] has as its system Mus musculus. Briefly: Anti-inflammatory effect on inflammatory process I (exudation: pouch fluid weight) at a log dose of -3g/kg, ip, in adjuvant-induced air-pouch granuloma of mice(*).
Test [19] has as its system Mus musculus. Nature of the test: Inhibitory effect on inflammatory process IV (granuloma formation) at a log dose of -6mol/kg, ip relative to hydrocortisone on adjuvant-induced air-pouch granulomas of mice.
Test [20] has as its system Mus musculus. Nature of the test: Weak anti-inflammatory and inflammatory effect on inflammatory process II (migration: inflammatory cell count) at a log dose of -3g/kg, ip, in adjuvant-induced air-pouch granuloma of mice(**).
For test [21], the system named is Mus musculus. Briefly: Inhibitory effect on inflammatory process I (exudation: pouch fluid weight) at a log dose of -6mol/kg, ip relative to hydrocortisone on adjuvant-induced air-pouch granulomas of mice.
The subject of test [22] is Mus musculus. Nature of the test: Anti-inflammatory effect on inflammatory process II (migration: inflammatory cell count) at a log dose of -1.5g/kg, ip, in adjuvant-induced air-pouch granuloma of mice(*).
The test system of test [23] is Mus musculus. Nature of the test: Weak anti-inflammatory and inflammatory effect on inflammatory process I (exudation: pouch fluid weight) at a log dose of -2.2g/kg, ip, in adjuvant-induced air-pouch granuloma of mice(**).
The subject of test [24] is Mus musculus. Nature of the test: Weak anti-inflammatory and inflammatory effect on inflammatory process IV (granuloma formation) at a log dose of -1.5g/kg, ip, in adjuvant-induced air-pouch granuloma of mice(**).
The test system of test [25] is Mus musculus. Briefly: Anti-inflammatory effect on inflammatory process IV (granuloma formation) at a log dose of -1.5g/kg, ip, in adjuvant-induced air-pouch granuloma of mice(*).
The test system of test [26] is Mus musculus. Briefly: Inhibitory effect on inflammatory process III (angiogenesis: carmine content) at a log dose of -6mol/kg, ip relative to hydrocortisone on adjuvant-induced air-pouch granulomas of mice.
The test system of test [27] is Mus musculus. Nature of the test: Anti-inflammatory effect on inflammatory process I (exudation: pouch fluid weight) at a log dose of -1.5g/kg, ip, in adjuvant-induced air-pouch granuloma of mice(*).
Test [28] has as its system Mus musculus. Briefly: Weak anti-inflammatory and inflammatory effect on inflammatory process III (angiogenesis: carmine content) at a log dose of -3g/kg, ip, in adjuvant-induced air-pouch granuloma of mice(**).
The species named for test [29] is Mus musculus. Briefly: Inhibitory dose required against exudation (pouch fluid weight) tested for antiinflammatory activity in mice(parentheses value represents 95% confidence limits). The conditions noted are these: read-out: ID50 (the source's name).
Test [30] is filed under the species Mus musculus. Nature of the test: Inhibitory dose required against angiogenesis (carmine content) tested for antiinflammatory activity in mice(parentheses value represents 95% confidence limits). The conditions noted are these: read-out: ID50 (the source's name).
Test [31] is filed under the species Mus musculus. Briefly: Inhibitory dose required against migration (inflammatory cell count) tested for antiinflammatory activity in mice(parentheses value represents 95% confidence limits). To be noted: read-out: ID50 (the source's name).
The species entered for test [32] is Mus musculus. Nature of the test: Inhibitory dose required against granuloma formation tested for antiinflammatory activity in mice(parentheses value represents 95% confidence limits). The conditions noted are these: read-out: ID50 (the source's name).
Test [33] deals with Mus musculus. Nature of the test: Inhibitory effect on inflammatory process I (exudation: pouch fluid weight) at a log dose of -5.6mol/kg, ip relative to hydrocortisone on adjuvant-induced air-pouch granulomas of mice.
In test [34] the test system is Mus musculus. Briefly: Inhibitory effect on inflammatory process III (angiogenesis: carmine content) at a log dose of -5.25mol/kg, ip relative to hydrocortisone on adjuvant-induced air-pouch granulomas of mice.
Test [35] concerns Mus musculus. Briefly: Inhibitory effect on inflammatory process III (angiogenesis: carmine content) at a log dose of -5.6mol/kg, ip relative to hydrocortisone on adjuvant-induced air-pouch granulomas of mice.
Test [36] has as its system Mus musculus. Briefly: Inhibitory effect on inflammatory process I (exudation: pouch fluid weight) at a log dose of -5.25mol/kg, ip relative to hydrocortisone on adjuvant-induced air-pouch granulomas of mice.
The test system of test [37] is Mus musculus. Nature of the test: Inhibitory effect on inflammatory process II (migration: inflammatory cell count) at a log dose of -5.6mol/kg, ip relative to hydrocortisone on adjuvant-induced air-pouch granulomas of mice.
The test system of test [38] is Mus musculus. Nature of the test: Inhibitory effect on inflammatory process II (migration: inflammatory cell count) at a log dose of -5.25mol/kg, ip relative to hydrocortisone on adjuvant-induced air-pouch granulomas of mice.
In test [39] the test system is Mus musculus. Briefly: Inhibitory effect on inflammatory process IV (granuloma formation) at a log dose of -5.6mol/kg, ip relative to hydrocortisone on adjuvant-induced air-pouch granulomas of mice.
The test system of test [40] is Mus musculus. Nature of the test: Inhibitory effect on inflammatory process IV (granuloma formation) at a log dose of -5.25mol/kg, ip relative to hydrocortisone on adjuvant-induced air-pouch granulomas of mice.

Structures are written as SMILES. Where only a bound is given, the exact number is not on record here.

On to `C/C(=C\CC/C(C)=C/CC/C(C)=C/CC[C@@H]1[C@@]2(C)CCC(=O)C(C)(C)C2CC[C@@]1(C)O)CO` (stereo partly specified), for which the Relative amount with Mus musculus [1] is given as 95%; with Mus musculus [2] it was 65%; in the test with Mus musculus [3] it was 75%; in the test on Mus musculus [4], below 50%; in the test on Mus musculus [5], 250%; with Mus musculus [6], 180%. The Relative amount is listed as 83% in the test on Mus musculus [7]; 85% with Mus musculus [8]; 100% with Mus musculus [9]; below 68% in the test on Mus musculus [10]; 185% in the test on Mus musculus [11]; 83% in the test with Mus musculus [12]. The Relative amount in the test with Mus musculus [13] worked out at 80%; in the test with Mus musculus [14], 175%; in the test with Mus musculus [15] it was 170%; in the test with Mus musculus [16], 65%; with Mus musculus [17], 70%; in the test with Mus musculus [18], 75%. The Relative amount is 75% in the test on Mus musculus [19]; 85% in the test with Mus musculus [20]; 90% with Mus musculus [21]; 70% in the test on Mus musculus [22]; 225% with Mus musculus [23]; 100% in the test with Mus musculus [24]. Also, the Relative amount is given as below 55% in the test on Mus musculus [25], 105% in the test on Mus musculus [26], 60% in the test on Mus musculus [27] and 90% in the test with Mus musculus [28].
For `C[C@]12CCC(=O)C=C1CCC1[C@@H]2[C@@H](O)C[C@@]2(C)[C@H]1CC[C@]2(O)C(=O)CO` (single isomer, unassigned) [HYDROCORTISONE], the ED50 in the test listed under Mus musculus [29] turned out to be 6.31 µmol/kg; in the test filed under Mus musculus [30] it was 22.1 µmol/kg; in the test filed under Mus musculus [31] it was 11.7 µmol/kg; in the test filed under Mus musculus [32], 29.2 µmol/kg.
Consider `C/C(=C\CC/C(C)=C/CC/C(C)=C/CC[C@@H]1[C@@]2(C)CC[C@H](O)C(C)(C)C2CC[C@@]1(C)O)CO` (stereo partly specified), for which the Relative amount was 80% in the test with Mus musculus [1]; 35% in the test with Mus musculus [2]; below 20% in the test with Mus musculus [33]; below 30% in the test on Mus musculus [34]; 105% with Mus musculus [3]; below 50% in the test with Mus musculus [4]. For the same molecule, the Relative amount in the test on Mus musculus [5] is 25%; with Mus musculus [6], 50%; in the test on Mus musculus [7] it was below 63%; in the test with Mus musculus [35] it was below 47%; in the test on Mus musculus [36], below 5%; in the test with Mus musculus [8] it was 65%. The Relative amount in the test with Mus musculus [9] is listed as 62%; in the test on Mus musculus [10] it was below 65%; with Mus musculus [11], 65%; in the test with Mus musculus [12], below 52%; in the test on Mus musculus [13], below 70%; in the test on Mus musculus [14] it was 65%. The Relative amount came to 70% in the test with Mus musculus [15]; 80% in the test on Mus musculus [16]; 90% in the test on Mus musculus [37]; 115% in the test on Mus musculus [38]; 100% in the test on Mus musculus [17]; 45% in the test on Mus musculus [18]. In addition, the Relative amount is given as below 75% in the test with Mus musculus [39]; 85% in the test on Mus musculus [19]; 100% in the test with Mus musculus [20]; 70% in the test on Mus musculus [21]; 60% with Mus musculus [22]; below 50% in the test with Mus musculus [40]. For the same molecule, the Relative amount in the test with Mus musculus [23] was 27%; in the test with Mus musculus [24], 60%; with Mus musculus [25], below 55%; with Mus musculus [26], 87%; in the test with Mus musculus [27] it was below 15%; with Mus musculus [28], 75%. Besides, the results for the ED50 in the test filed under Mus musculus [29], in the test filed under Mus musculus [30] and in the test filed under Mus musculus [32] were 1.75 µmol/kg, 2.8 µmol/kg and 5.83 µmol/kg, respectively.

Source of the values: ChEMBL document CHEMBL1134038, “New triterpenes, myrrhanol A and myrrhanone A, from guggul-gum resins, and their potent anti-inflammatory effect on adjuvant-induced air-pouch granuloma of mice” (2001).
